Results taken from the supplement of paper PMC10307832.

How the values were obtained:
Assay in all cases: relative viability (nuclei count vs DMSO), 5 days (fraction); higher = more cells survive
[1] = compound: C[C@@H](Oc1cc(-c2cnn(C3CCNCC3)c2)cnc1N)c1c(Cl)ccc(F)c1Cl [Crizotinib] + Cc1cc(Nc2cc(N3CCN(C)CC3)nc(Sc3ccc(NC(=O)C4CC4)cc3)n2)n[nH]1 [Tozasertib] (partner 0.1 µM)
Method in brief: (§1)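 One day after seeding in 1536-well plates, lung cancer cell lines were dosed by pin tool. Dosing was either single-drug or a fixed anchor-drug dose plus five library-drug doses (not always all listed) in √10 steps. After 5 days, nuclei were stained in one fix-and-stain step and counted on 4× images, and relative viability is the nuclei count of treated wells over that of vehicle wells, given as the median of duplicate plates.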

[2] = compound: O=C(c1cc(Cc2n[nH]c(=O)c3ccccc23)ccc1F)N1CCN(C(=O)C2CC2)CC1 [Olaparib] + CC(=O)Nc1cccc(-n2c(=O)n(C3CC3)c(=O)c3c(Nc4ccc(I)cc4F)n(C)c(=O)c(C)c32)c1 [Trametinib] (partner 0.02 µM)
Method in brief: as §1

[3] = compound: O=C(c1cc(Cc2n[nH]c(=O)c3ccccc23)ccc1F)N1CCN(C(=O)C2CC2)CC1 [Olaparib] + Nc1ncn([C@H]2C[C@H](O)[C@@H](CO)O2)c(=O)n1 [Decitabine] (partner 2 µM)
Method in brief: as §1

[4] = compound: CC(C)C[C@H](NC(=O)[C@H](CCc1ccccc1)NC(=O)CN1CCOCC1)C(=O)N[C@@H](Cc1ccccc1)C(=O)N[C@@H](CC(C)C)C(=O)[C@@]1(C)CO1 [Carfilzomib] + NC(=O)Nc1cc(-c2cccc(F)c2)sc1C(=O)N[C@H]1CCCNC1 [AZD7762] (partner 0.2 µM)
Method in brief: as §1

Cell Line NCI-H1793 has a relative viability ([1]; first compound 0.03162 µM) of 0.342, a relative viability ([1]; first compound 0.1 µM) of 0.32 and a relative viability ([1]; first compound 1 µM) of 0.449. It also gave a relative viability ([2]; first compound 0.08 µM) of 0.522, a relative viability ([2]; first compound 0.253 µM) of 0.427 and a relative viability ([2]; first compound 2.53 µM) of 0.395. It also gave a relative viability ([2]; first compound 8 µM) of 0.476, a relative viability ([3]; first compound 0.08 µM) of 0.338 and a relative viability ([3]; first compound 0.253 µM) of 0.417. For the same cell line, the relative viability ([3]; first compound 2.53 µM) was 0.337, the relative viability ([3]; first compound 8 µM) was 0.326 and the relative viability ([4]; first compound 0.001 µM) was 0.481. The relative viability ([4]; first compound 0.003162 µM) was 0.883, the relative viability ([4]; first compound 0.01 µM) was 0.599 and the relative viability ([4]; first compound 0.03162 µM) was 0.757. For the same cell line, the relative viability ([4]; first compound 0.1 µM) was 0.506.
